Measurements as given in ChEMBL document CHEMBL3112432, “Synthesis of 5α-cholestan-6-one derivatives and their inhibitory activities of NO production in activated microglia: discovery of a novel neuroinflammation inhibitor” (Bioorg Med Chem Lett, 2014).

Tests used:
[1] = Antiinflammatory activity in LPS-stimulated mouse BV2 cells assessed as inhibition of NO production at 40 uM after 24 hrs by Griess method relative to control; type: functional; conditions: BV-2, 24 h
[2] = Cytotoxicity against mouse BV2 cells assessed as cell viability at 40 uM after 24 hrs by MTT assay relative to control; type: cell-based, BV-2; conditions: read-out: Activity
BV-2 = assay: Antiinflammatory activity in LPS-stimulated mouse BV2 cells assessed as inhibition of NO production after 24 hrs by Griess method; type: functional, cell-based

Structure (SMILES): COC(=O)CC[C@@H](C)[C@H]1CC[C@H]2[C@@H]3CC(=O)[C@H]4C[C@H](O)[C@H](O)C[C@]4(C)[C@H]3CC[C@]12C
- inhibition at 40 µM [1]: 74.1%
- viability at 24 h, 40 µM [2]: 81.1%

Structure (SMILES): COC(=O)CC[C@@H](C)[C@H]1CC[C@H]2[C@@H]3CC(=O)[C@H]4C[C@@H](F)CC[C@]4(C)[C@H]3CC[C@]12C
- inhibition at 40 µM [1]: 43.5%
- viability at 24 h, 40 µM [2]: 84.1%

Structure (SMILES): C=C[C@@H](C)[C@H]1CC[C@H]2[C@@H]3[C@H](O)C(=O)[C@H]4C[C@H](O)[C@@H](F)C[C@]4(C)[C@H]3CC[C@]12C
- inhibition at 40 µM [1]: 92.7%
- viability at 24 h, 40 µM [2]: 55.9%

Structure (SMILES): COC(=O)CC[C@@H](C)[C@H]1CC[C@H]2[C@@H]3[C@H](F)C(=O)[C@H]4C[C@H](O)[C@H](O)C[C@]4(C)[C@H]3CC[C@]12C
- inhibition at 40 µM [1]: 72.4%
- viability at 24 h, 40 µM [2]: 69.9%

Structure (SMILES): COC(=O)CC[C@@H](C)[C@H]1CC[C@H]2[C@@H]3[C@H](F)C(=O)[C@H]4C[C@H](O)[C@@H](F)C[C@]4(C)[C@H]3CC[C@]12C
- inhibition (BV-2): Dose-dependent effect
- inhibition at 40 µM [1]: 70%
- viability at 24 h, 40 µM [2]: 96.2%

Structure (SMILES): C=C[C@@H](C)[C@H]1CC[C@H]2[C@@H]3[C@H](O)C(=O)[C@H]4C[C@@H](F)CC[C@]4(C)[C@H]3CC[C@]12C
- inhibition at 40 µM [1]: 43.2%
- viability at 24 h, 40 µM [2]: 87%

Structure (SMILES): C=C[C@@H](C)[C@H]1CC[C@H]2[C@@H]3[C@H](F)C(=O)[C@H]4C[C@H](O)CC[C@]4(C)[C@H]3CC[C@]12C
- inhibition at 40 µM [1]: 44.5%
- viability at 24 h, 40 µM [2]: 76.6%

Structure (SMILES): C[C@]12CC[C@H](O)CC1=CC[C@@H]1[C@@H]2CC[C@]2(C)C(=O)CC[C@@H]12 [PRASTERONE]
- inhibition at 40 µM [1]: 55.3%
- viability at 24 h, 40 µM [2]: 99.1%

Structure (SMILES): COC(=O)CC[C@@H](C)[C@H]1CC[C@H]2[C@@H]3CC(=O)[C@H]4C[C@H](O)[C@@H](Br)C[C@]4(C)[C@H]3CC[C@]12C
- inhibition at 40 µM [1]: 42.7%
- viability at 24 h, 40 µM [2]: 91.4%

Structure (SMILES): COC(=O)CC[C@@H](C)[C@H]1CC[C@H]2[C@@H]3CC(=O)[C@H]4C[C@@H](O)CC[C@]4(C)[C@H]3CC[C@]12C
- inhibition at 40 µM [1]: 18.1%
- viability at 24 h, 40 µM [2]: 27.8%

Structure (SMILES): COC(=O)CC[C@@H](C)[C@H]1CC[C@H]2[C@@H]3CC(=O)[C@H]4C[C@@H](Br)CC[C@]4(C)[C@H]3CC[C@]12C
- inhibition at 40 µM [1]: 41.5%
- viability at 24 h, 40 µM [2]: 81.5%

Structure (SMILES): COC(=O)CC[C@@H](C)[C@H]1CC[C@H]2[C@@H]3[C@H](O)C(=O)[C@H]4C[C@H](O)[C@@H](F)C[C@]4(C)[C@H]3CC[C@]12C
- inhibition at 40 µM [1]: 75.1%
- viability at 24 h, 40 µM [2]: 80.5%

Structure (SMILES): COC(=O)CC[C@@H](C)[C@H]1CC[C@H]2[C@@H]3CC(=O)[C@H]4C[C@@H](Cl)CC[C@]4(C)[C@H]3CC[C@]12C
- inhibition at 40 µM [1]: 35.9%
- viability at 24 h, 40 µM [2]: 79%

Structure (SMILES): COC(=O)CC[C@@H](C)[C@H]1CC[C@H]2[C@@H]3[C@H](F)C(=O)[C@H]4C[C@@H](O)CC[C@]4(C)[C@H]3CC[C@]12C
- inhibition at 40 µM [1]: 43.9%
- viability at 24 h, 40 µM [2]: 23.1%

Structure (SMILES): C[C@H]([C@H](O)CO)[C@H]1CC[C@H]2[C@@H]3[C@H](F)C(=O)[C@H]4C[C@@H](F)CC[C@]4(C)[C@H]3CC[C@]12C
- inhibition at 40 µM [1]: 35.9%
- viability at 24 h, 40 µM [2]: 81.7%

Structure (SMILES): COC(=O)CC[C@@H](C)[C@H]1CC[C@H]2[C@@H]3[C@H](F)C(=O)[C@H]4C[C@H](O)[C@@H](O)C[C@]4(C)[C@H]3CC[C@]12C
- inhibition at 40 µM [1]: 68.1%
- viability at 24 h, 40 µM [2]: 50.8%

Structure (SMILES): COC(=O)CC[C@@H](C)[C@H]1CC[C@H]2[C@@H]3CC(=O)[C@H]4CC(=O)CC[C@]4(C)[C@H]3CC[C@]12C
- inhibition at 40 µM [1]: 48.2%
- viability at 24 h, 40 µM [2]: 78%

Structure (SMILES): COC(=O)CC[C@@H](C)[C@H]1CC[C@H]2[C@@H]3CC(=O)[C@H]4C[C@H](O)CC[C@]4(C)[C@H]3CC[C@]12C
- inhibition at 40 µM [1]: 39.4%
- viability at 24 h, 40 µM [2]: 87.7%

Structure (SMILES): C[C@H]([C@H](O)CO)[C@H]1CC[C@H]2[C@@H]3[C@H](O)C(=O)[C@H]4C[C@@H](F)CC[C@]4(C)[C@H]3CC[C@]12C
- inhibition at 40 µM [1]: 91.9%
- viability at 24 h, 40 µM [2]: 78.6%

Structure (SMILES): C[C@H]([C@H](O)CO)[C@H]1CC[C@H]2[C@@H]3CC(=O)[C@H]4C[C@H](O)[C@H](O)C[C@]4(C)[C@H]3CC[C@]12C
- inhibition at 40 µM [1]: 22.6%
- viability at 24 h, 40 µM [2]: 94%

Structure (SMILES): C=C[C@@H](C)[C@H]1CC[C@H]2[C@@H]3[C@H](O)C(=O)[C@H]4C[C@@H](O)CC[C@]4(C)[C@H]3CC[C@]12C
- inhibition at 40 µM [1]: 59.5%
- viability at 24 h, 40 µM [2]: 81.8%

Structure (SMILES): COC(=O)CC[C@@H](C)[C@H]1CC[C@H]2[C@@H]3[C@H](F)C(=O)[C@H]4C[C@@H]5O[C@@H]5C[C@]4(C)[C@H]3CC[C@]12C
- inhibition at 40 µM [1]: 32.6%
- viability at 24 h, 40 µM [2]: 97.2%

Structure (SMILES): COC(=O)CC[C@@H](C)[C@H]1CC[C@H]2[C@@H]3CC(=O)[C@H]4C[C@@H]5O[C@@H]5C[C@]4(C)[C@H]3CC[C@]12C
- inhibition at 40 µM [1]: 48.6%
- viability at 24 h, 40 µM [2]: 99.5%

Structure (SMILES): COC(=O)CC[C@@H](C)[C@H]1CC[C@H]2[C@@H]3[C@H](F)C(=O)[C@H]4C[C@@H](F)CC[C@]4(C)[C@H]3CC[C@]12C
- inhibition at 40 µM [1]: 39.1%
- viability at 24 h, 40 µM [2]: 92.2%

Structure (SMILES): C[C@H]([C@H](O)CO)[C@H]1CC[C@H]2[C@@H]3[C@H](O)C(=O)[C@H]4C[C@H](O)CC[C@]4(C)[C@H]3CC[C@]12C
- inhibition at 40 µM [1]: 47.1%
- viability at 24 h, 40 µM [2]: 95.7%

Structure (SMILES): COC(=O)CC[C@@H](C)[C@H]1CC[C@H]2[C@@H]3[C@H](O)C(=O)[C@H]4C[C@@H](F)CC[C@]4(C)[C@H]3CC[C@]12C
- inhibition (BV-2): Dose-dependent effect
- inhibition at 40 µM [1]: 64.2%
- viability at 24 h, 40 µM [2]: 92.4%

Structure (SMILES): C=C[C@@H](C)[C@H]1CC[C@H]2[C@@H]3[C@H](O)C(=O)[C@H]4C[C@H](O)CC[C@]4(C)[C@H]3CC[C@]12C
- inhibition at 40 µM [1]: 69.6%
- viability at 24 h, 40 µM [2]: 76.6%

Structure (SMILES): C=C[C@@H](C)[C@H]1CC[C@H]2[C@@H]3CC(=O)[C@H]4C[C@H](O)[C@H](O)C[C@]4(C)[C@H]3CC[C@]12C
- inhibition at 40 µM [1]: 65.7%
- viability at 24 h, 40 µM [2]: 48.2%

Structure (SMILES): C=C[C@@H](C)[C@H]1CC[C@H]2[C@@H]3CC(=O)[C@H]4C[C@H](O)CC[C@]4(C)[C@H]3CC[C@]12C
- inhibition at 40 µM [1]: 24.5%
- viability at 24 h, 40 µM [2]: 96.4%

Structure (SMILES): COC(=O)CC[C@@H](C)[C@H]1CC[C@H]2[C@@H]3CC(=O)[C@H]4C[C@H](O)[C@@H](F)C[C@]4(C)[C@H]3CC[C@]12C
- inhibition at 40 µM [1]: 46.1%
- viability at 24 h, 40 µM [2]: 95.8%

Structure (SMILES): COC(=O)CC[C@@H](C)[C@H]1CC[C@H]2[C@@H]3[C@H](O)C(=O)[C@H]4C[C@@H](O)CC[C@]4(C)[C@H]3CC[C@]12C
- inhibition (BV-2): Dose-dependent effect
- inhibition at 40 µM [1]: 71.1%
- viability at 24 h, 40 µM [2]: 96.3%

Structure (SMILES): COC(=O)CC[C@@H](C)[C@H]1CC[C@H]2[C@@H]3CC(=O)[C@H]4C[C@H](O)[C@@H](O)C[C@]4(C)[C@H]3CC[C@]12C
- inhibition at 40 µM [1]: 44.9%
- viability at 24 h, 40 µM [2]: 79.5%

Structure (SMILES): C[C@H]([C@H](O)CO)[C@H]1CC[C@H]2[C@@H]3[C@H](F)C(=O)[C@H]4C[C@H](O)CC[C@]4(C)[C@H]3CC[C@]12C
- inhibition (BV-2): Dose-dependent effect
- inhibition at 40 µM [1]: 68.1%
- viability at 24 h, 40 µM [2]: 95.1%

Structure (SMILES): C=C[C@@H](C)[C@H]1CC[C@H]2[C@@H]3[C@H](F)C(=O)[C@H]4C[C@H](O)[C@@H](F)C[C@]4(C)[C@H]3CC[C@]12C
- inhibition at 40 µM [1]: 63.8%
- viability at 24 h, 40 µM [2]: 86.8%

Structure (SMILES): COC(=O)CC[C@@H](C)[C@H]1CC[C@H]2[C@@H]3[C@H](F)C(=O)[C@H]4C[C@H](O)CC[C@]4(C)[C@H]3CC[C@]12C
- inhibition at 40 µM [1]: 47.2%
- viability at 24 h, 40 µM [2]: 73.7%

Structure (SMILES): C[C@H]([C@H](O)CO)[C@H]1CC[C@H]2[C@@H]3CC(=O)[C@H]4C[C@H](O)CC[C@]4(C)[C@H]3CC[C@]12C
- inhibition (BV-2): Dose-dependent effect
- inhibition at 40 µM [1]: 60.4%
- viability at 24 h, 40 µM [2]: 95.9%
